# Assays:
# Escherichia coli AB1157 = assay: MIC assay (microbroth dilution) ± 25 μM EPI; assay type: cell-based; conditions: for MICs (μg/ml) ± EPIs: MBX2319 / MICs (μg/ml) ± EPIs: PAβN / MICs (μg/ml) ± EPIs: None: E. coli AB1157 (WT), geometric mean; for MICs (μg/ml) ± EPIs: MBX2319: + 25 μM MBX2319; for MICs (μg/ml) ± EPIs: PAβN: + 25 μM PAβN; for MICs (μg/ml) ± EPIs: None: no EPI; for MIC Ratio MBX2319 / MIC Ratio PAβN: E. coli AB1157; for MIC Ratio MBX2319: MIC no cmpd/MIC + 25 μM MBX2319; for MIC Ratio PAβN: MIC no cmpd/MIC + 25 μM PAβN; for MIC: Escherichia coli, AB1157, read-out: MICs (μg/ml) ± EPIs: None
# Description: (§1) • Strains and Reagents. The following strains were obtained from the Keio collection (Baba, et al.: Construction of Escherichia coli K-12 in-frame, single-gene knockout mutants: the Keio collection. In Mol Syst Biol, vol. 2, pp. 2006 0008, (2006)): JW0451 (ΔacrB::kan), JW5503 (ΔtolC::kan), JW3234 (ΔacrF::kan), JW2661 (ΔemrB::kan), JW0863 (ΔmacB::kan). The deletion mutations in each of these strains were transferred to AB1157 using P1 phage transduction (see Table 1). The construction of the E. coli cell-based reporter strain (SOS-XXX) that was used for high throughput screening is described in detail in the supplementary information. […] Irgasan was a generous gift from Ciba Speciality Chemicals, Inc. (High Point, N.C.). Hoechst 33342 (H33342) was purchased from Molecular Probes (Eugene, Oreg.). […] Luria Broth (Miller) and agar were purchased as prepared dehydrated media from Becton Dickenson (Franklin Lakes, N.J.). The compound libraries used in high-throughput screens were purchased from Chembridge (San Diego, Calif.), ChemDiv (San Diego, Calif.), and TimTec (Newark, Del.). MBX2319 was synthesized by Microbiotix, Inc. • Antibacterial Activity Assays. The minimal inhibitory concentration (MIC) of antibacterial agents and biocides were determined using the microbroth dilution method essentially as described in the CLSI protocol M7-A7 (CLSI: Method for dilution antimicrobial susceptibility testing for bacteria that grow aerobically; Approved standard-document M7-A7. In Clinical and Laboratory Standards Institute document M7-A7, Clinical and Laboratory Standards Institute, Wayne, Pa., (2006)), with the following exceptions. LB media was used instead of MHB. […] The final concentration of DMSO in each assay was 2%. […] MIC assays were performed in triplicate and the geometric mean was calculated. Checkerboard MIC assays using an EPI and an antibacterial agent were performed essentially as described (Pillai, et al.: Antimicrobial Combinations. In Antibiotics in Laboratory Medicine, ed. by V. Lorian, pp. 365-440, Lippincott Williams & Wilkins, Philadelphia, Pa., (2005)), with the same modifications used for the MIC assays described above. • Time-Kill Assays. Killing curve assays were performed essentially as described (Pillai, et al.: Antimicrobial Combinations. In Antibiotics in Laboratory Medicine, ed. by V. Lorian, pp. 365-440, Lippincott Williams & Wilkins, Philadelphia, Pa., (2005)). Exponential bacterial cultures grown in LB were diluted to a cell density of ˜1×10^7 in LB followed by addition of CIP and/or an EPI. Viability was monitored over 2-4 hours by making serial dilutions in saline and spotting 5 μl of each dilution onto the surface of an LB agar plate in triplicate. Colonies were counted after the plates were incubated at 37° C. for 16-18 hr, colony forming units (CFU) per ml were calculated, and the average and standard deviation for the three replicates was determined. For treatments that decreased CFU/ml below the limit of detection for the spot plating method, the 100 μl samples were diluted into 5 ml LB top agar, were poured onto LB agar plates, and incubated for 18 hr at 37° C. To calculate the fraction of the control for each sample, the average CFU/ml values for treated samples were divided by those from the same sample at 0 h (time=0). Each experiment was repeated at least three times, and a representative experiment is shown. • H33342 Accumulation Assay. The rate of accumulation of the fluorescent dye Hoechst 33342 (H33342), which is a substrate of a wide variety of bacterial efflux pumps (van den Berg van Saparoea, et al., Biochemistry, vol. 44, pp. 16931-16938, (2005)), can be used to estimate the activity of the major efflux pumps in E. coli and many other bacterial species. The H33342 accumulation assay was used to evaluate the effect of EPIs on the activity of the AcrAB-TolC efflux pump in several bacterial species essentially as described (Coldham, et al., J Antimicrob Chemother, vol. 65, pp. 1655-1663, (2010)). […]
# [1] = system: Escherichia coli AB1157 ΔacrB; assay: MIC assay (microbroth dilution); assay type: cell-based; conditions: for MIC Ratio ΔacrB: MIC WT/MIC ΔacrB; for MICs (μg/ml) ΔacrB None: ΔacrB strain, no EPI, geometric mean; for MIC: Escherichia coli, read-out: MICs (μg/ml) ΔacrB None
# Description: as §1
Compound,MICs (μg/ml) ± EPIs: MBX2319 (Escherichia coli AB1157),MICs (μg/ml) ± EPIs: PAβN (Escherichia coli AB1157),MICs (μg/ml) ± EPIs: None (Escherichia coli AB1157),MIC Ratio MBX2319 (Escherichia coli AB1157),MIC Ratio PAβN (Escherichia coli AB1157),MIC Ratio ΔacrB [1],MICs (μg/ml) ΔacrB None [1],MIC (Escherichia coli AB1157),MIC [1]
CC1(C)S[C@@H]2[C@H](NC(=O)[C@H](N)c3ccc(O)cc3)C(=O)N2[C@H]1C(=O)O [Amoxacillin],4 µg/mL,4 µg/mL,4 µg/mL,1,1,0.5,8 µg/mL,,
CC1=C(C(=O)O)N2C(=O)[C@@H](NC(=O)[C@H](N)c3ccccc3)[C@H]2SC1 [Cephalexin],16 µg/mL,16 µg/mL,,2,2,1,,32 µg/mL,32 µg/mL
O=C(N[C@H](CO)[C@H](O)c1ccc([N+](=O)[O-])cc1)C(Cl)Cl [Cloramphenicol],2 µg/mL,2 µg/mL,8 µg/mL,4,4,4,2 µg/mL,,
Cc1onc(-c2ccccc2Cl)c1C(=O)N[C@@H]1C(=O)N2[C@@H]1SC(C)(C)[C@@H]2C(=O)O [Cloxacillin],128 µg/mL,64 µg/mL,,2,4,64,,256 µg/mL,4 µg/mL
CN(C)c1ccc(C(=C2C=CC(=[N+](C)C)C=C2)c2ccc(N(C)C)cc2)cc1 [Crystal violet],8 µg/mL,1 µg/mL,,2,16,16,,16 µg/mL,1 µg/mL
"CC[n+]1c(-c2ccccc2)c2cc(N)ccc2c2ccc(N)cc21 [Ethidium Br, Ethidium Bromide]",256 µg/mL,16 µg/mL,,1,16,32,,256 µg/mL,8 µg/mL
Oc1cc(Cl)ccc1Oc1ccc(Cl)cc1Cl [Irgasan],0.125 µg/mL,0.031 µg/mL,0.25 µg/mL,2,8,8,0.031 µg/mL,,
CCn1cc(C(=O)O)c(=O)c2ccc(C)nc21 [Nalidixic acid],8 µg/mL,1 µg/mL,,2,16,2,,16 µg/mL,8 µg/mL
CCn1cc(C(=O)O)c(=O)c2cc(F)c(N3CCNCC3)cc21 [Norfloxacin],0.063 µg/mL,0.063 µg/mL,,1,1,4,,0.063 µg/mL,0.016 µg/mL
Cc1onc(-c2ccccc2)c1C(=O)N[C@@H]1C(=O)N2[C@@H]1SC(C)(C)[C@@H]2C(=O)O [Oxacillin],64 µg/mL,,,,,,,512 µg/mL,4 µg/mL
CO[C@H]1/C=C/O[C@@]2(C)Oc3c(C)c(O)c4c(O)c(c(/C=N/N5CCN(C)CC5)c(O)c4c3C2=O)NC(=O)/C(C)=C\C=C\[C@H](C)[C@H](O)[C@@H](C)[C@@H](O)[C@@H](C)[C@H](OC(C)=O)[C@@H]1C [Rifampicin],8 µg/mL,,,,,,,8 µg/mL,8 µg/mL
CN(C)[C@@H]1C(O)=C(C(N)=O)C(=O)[C@@]2(O)C(O)=C3C(=O)c4c(O)cccc4[C@@](C)(O)[C@H]3C[C@@H]12 [Tetracycline],,,,,,,,,0.5 µg/mL
Gentamicin,8 µg/mL,8 µg/mL,4 µg/mL,0.5,0.5,1,4 µg/mL,,
